Laboratory results as given in patent publication US20090258951A1, “Use of vanillyl alcohol for the treatment of Parkinson's disease” (Red Pharma & Biotech Research Corporation, priority 2008, published 2009).

Columns and labels:
[1] = test system: rat with right-side substantia nigra destroyed by 6-OHDA (6-hydroxydopamine); experiment: Amphetamine-induced rotation of rat with substantia nigra destroyed by 6-OHDA (animal gyroscope); format: in vivo
Method: (§1) After affixing rear head of a rat with a three-dimensional tightener and anaesthetizing the rat, then inject substantia nigra located at the right side of brain of the rat with 6-OHDA (6-hydroxydopamine) to destroy substantia nigra to make the rat produce tremor, rigidity, bradykinesia etc. Next, after the rat returns to and stays in room for 2 weeks, it is given amphetamine (5 mg/1000 g) via belly injection and then starts rotating round an animal gyroscope, wherein the number of rotations will be recorded (if the number of rotations exceeds 300 rotations per an hour, it means that the amphetamine has effected on the rat).
The substantia nigra of the brain of the rat is a tissue to release dopamine so that the injected amphetamine may accelerate the substantia nigra to release a large amount of dopamine. However, the substantia nigra located at the right side of brain of the rat has been destroyed by the 6-OHDA (6-hydroxydopamine) already unable to release dopamine any more, although the rat is injected with amphetamine for stimulation but the left side of body movement which is controlled by the right side of brain remains rigidity and bradykinesia. On the other hand, the substantia nigra located at the left side of brain of the rat is in normal condition without any injury so hyperkinesia occurs on the right side of body movement which is controlled by the left side of brain due to acceleration of amphetamine, that's why the rat keeps rotating for right turn (clockwise) and even uncontrollably.
(§2) With reference to FIG. 4, the rat is given with amphetamine about 1 mg per 1 kg of body weight thereof via belly injection and rotates round an animal gyroscope on 28th, 36th, 43rd and 52nd day respectively for right turn (clockwise) and left turn (counterclockwise), in which the number of rotations will be recorded.
as §2, with “to FIG. 5, the rat” for “to FIG. 4, the rat”, “injection and further provided with Vanillyl alcohol about 30 mg. Next, the rat rotates round” for “injection and rotates round”

[2] = test system: rat with right-side substantia nigra destroyed by 6-OHDA (6-hydroxydopamine); format: in vivo
Method: as §1
The substantia nigra of the brain of the rat is a tissue to release dopamine so that the injected amphetamine may accelerate the substantia nigra to release a large amount of dopamine. […]
With reference to FIG. 7, the rat is given with L-DOPA about 50 mg per 1 kg of body weight thereof via belly injection and further provided with Vanillyl alcohol about 30 mg. […] Next, the rat rotates round an animal gyroscope on 28th, 36th, and 52nd day respectively for right turn (clockwise) and left turn (counterclockwise), in which the number of rotations will be recorded.

Row | Compound | number of rotations for left turn (counterclockwise) ([1]; amphetamine about 1 mg per 1 kg via belly injection alone, days 28, 36, 43, 52, symptom since 36th day (FIG. 4)) | behavioral asymmetry between right side and left side ([1]; amphetamine about 1 mg per 1 kg via belly injection alone, symptom since 36th day (FIG. 4)) | movements of the rat ([2]; L-DOPA about 50 mg per 1 kg via belly injection plus Vanillyl alcohol about 30 mg, benserazide 30 mg per 1 kg 30 minutes before, days 28, 36, 52 (FIG. 7)) | behavioral unbalance between right and left sides induced by L-DOPA ([2]; Vanillyl alcohol about 30 mg in combination with L-DOPA about 50 mg per 1 kg, benserazide pre-treatment (FIG. 7)) | number of rotations for right turn (clockwise) ([1]; amphetamine about 1 mg per 1 kg via belly injection plus Vanillyl alcohol about 30 mg, days 28, 36, 43, 52, effect since 43rd day, 52nd day most apparent (FIG. 5)) | behavioral asymmetry between right side and left side ([1]; amphetamine about 1 mg per 1 kg via belly injection plus Vanillyl alcohol about 30 mg, effect since 43rd day, 52nd day most apparent (FIG. 5))
1 | CC(N)Cc1ccccc1 (stereo not drawn) [amphetamine, reference compound] | decreased gradually | increased apparently |  |  |  | 
2 | COc1cc(CO)ccc1O [Vanillyl alcohol, 4-hydroxy-3-methoxy-benzyl alcohol] |  |  | almost normal | inhibit | decreased gradually | decreased apparently
